From patent US10506810B2, “Synergistic herbicidal composition” (QINGDAO KINGAGROOT RESISTANT WEED MANAGEMENT CO., LTD., priority 2015, dated 2019) come the findings set out here.

Common to all, as to experiment: pot-culture method, stem and leaf treatment in greenhouse, fresh weight inhibition rate 20 days after treatment (Gowing method)
What all share (format): in vivo

One experiment deals with Alopecurus japonicus. How it is done: (§1) Capsella bursa-pastoris, Myosoton aquaticum, Alopecurus japonicus were collected from corn fields in Huangdao Experimental Base of Shandong Province.
(§2) The above weeds were cultivated by a pot culture method. […] Full and uniform weed seeds were selected, soaked in warm water at 25° C. for 6 hours, and germinated in a 28° C. biochemical incubator (darkness). […] A certain amount of water was added to the enamel pan regularly to keep the soil moist.
(§3) The technical materials were all dissolved in acetone, and diluted with an aqueous solution containing 0.1% emulsifier T-80. The dilution is performed as required.
(§4) A ratio of the active ingredient A to the active ingredient B and amounts thereof in each group depends on the characteristics and toxicity of the two agents, as well as the main application purpose of a corresponding formulation. Based on the pre-tests in this study, the dosage of the active ingredient A and the active ingredient B applied alone and in combination were shown in the tables, and a total 15 groups were designed. Water containing the solvent and emulsifier same with the above groups but free of the agents was used as a blank control.
(§5) 3 pots with 20 weed seeds per pot were treated in one treatment with […] per treatment, that is, a total of 60 weeds were treated in one treatment.
(§6) The agents were used for only once in the experiment. In the stage of weeds with 2 leaves and 1 core, the weeds were thinned out to maintain 15 weeds per pot and 45 weeds for each treatment, then continued to be cultured to 3-5-leaves stage of Capsella bursa-pastoris and Myosoton aquaticum, and 3-leaves and 1-core stage of Alopecurus japonicus, and treated.
(§7) The well-cultured weeds were evenly placed on a platform with an area of 0.5 m^2, and a solution of agents was sprayed on the stems and leaves thereof by the 3WP-2000-type walking spray tower at a dosage of 30 kg/ha and at a spray pressure of 0.3 MPa. After all the solution was sprayed, the valve was closed. After 30 seconds, the door of the spray tower was opened, and the nutritional bowl was taken out. Then the valve was opened, and the spray tube was cleaned by spraying 50 ml of water.
(§8) A pot-culture method was employed. For the cultivation of weeds, please refer to the Section 1.2, and “Pesticide guidelines for laboratory bioactivity tests—herbicides”. As to a method for applying agents, please refer to the section 2.3.2, that is, a method for treating stems and leaves was employed.
(§9) A method for investigating absolute number was employed, wherein whole seedlings of survival weeds were cut off with a blade along the soil surface, and the fresh weight of the weeds was weighed with an analytical balance. For dead weeds, the fresh weight thereof was zero.
(§10) The investigation was performed after 20 days of the treatment for only once.
(§11) Wherein, in the formula, X represented the fresh weight inhibition rate of the active ingredient A in a dosage of P, and Y represented the fresh weight inhibition rate of the active ingredient B in a dosage of Q.

The test system of a further experiment is Capsella bursa-pastoris. The conditions noted are these: 480 h, Capsella bursa-pastoris, read-out: actual fresh weight inhibition rate. The procedure:
as §1, §2, §3, §4, §5, §6, §7, §8, §9, §10, §11

The subject of another experiment is Myosoton aquaticum. Particulars: Myosoton aquaticum, 480 h, read-out: actual fresh weight inhibition rate. The procedure: as §1, §2, §3, §4, §5, §6, §7, §8, §9, §10, §11

Read-outs that look alike come from different tables or passages of the source.

Turning to `Cc1nn(C)cc1C(=O)Oc1c(C(=O)c2ccc(C(F)(F)F)cc2S(C)(=O)=O)c(C)nn1C` [active ingredient A], the “actual fresh weight inhibition rate” value in the experiment with Alopecurus japonicus (Alopecurus japonicus, 15 g/hm^2) is given as 13.2%; in the experiment with Alopecurus japonicus (Alopecurus japonicus, 30 g/hm^2), 16.5%; with Alopecurus japonicus (Alopecurus japonicus, 45 g/hm^2), 24.6%; with Alopecurus japonicus (dosage 15 g/hm^2), 13.2%; in the experiment on Alopecurus japonicus (dosage 30 g/hm^2), 16.5%; in the experiment on Alopecurus japonicus (dosage 45 g/hm^2), 24.6%. For the same compound, the pest or weed control at 15 g/ha in the experiment on Capsella bursa-pastoris (15 g/hm^2) was determined as 72.3%; with Myosoton aquaticum (Myosoton aquaticum (Table 19), 15 g/hm^2), 13.2%; in the experiment with Myosoton aquaticum (15 g/hm^2), 67.4%; in the experiment on Myosoton aquaticum (dosage 15 g/hm^2), 67.4%. Also, the pest or weed control at 30 g/ha with Capsella bursa-pastoris (30 g/hm^2) was 90.5%; in the experiment on Myosoton aquaticum (Myosoton aquaticum (Table 19), 30 g/hm^2), 16.5%; with Myosoton aquaticum (30 g/hm^2), 87.6%; in the experiment with Myosoton aquaticum (dosage 30 g/hm^2), 87.6%. Further, the pest or weed control at 45 g/ha came to 100% with Capsella bursa-pastoris (45 g/hm^2); 24.6% in the experiment with Myosoton aquaticum (Myosoton aquaticum (Table 19), 45 g/hm^2); 100% in the experiment on Myosoton aquaticum (45 g/hm^2); 100% with Myosoton aquaticum (dosage 45 g/hm^2).
